ChEMBL document CHEMBL4765461, “Why All the Fuss about Oxidative Phosphorylation (OXPHOS)?” (J Med Chem, 2020)

Legend:
[1] = Inhibition of yeast mitochondrial F0F1-ATP synthase by LDH/pyruvate kinase coupled enzyme assay; parameters: species or system Saccharomyces cerevisiae
[2] = Inhibition of F0F1-ATP synthase in yeast intact mitochondria by LDH/pyruvate kinase coupled enzyme assay; parameters: species or system Saccharomyces cerevisiae
[3] = Inhibition of mitochondrial complex 1 in human MiaPaCa-2 cells assessed as reduction in oxygen consumption incubated for 24 hrs; type: cell-based; settings: mia paca-2
[4] = Inhibition of mitochondrial complex 1 in human NCI-H460 cells assessed as reduction in cell proliferation incubated for 48 hrs under galactose containing medium by cell titer glow assay; type: cell-based; settings: NCI-H460, 48 h
[5] = Inhibition of mitochondrial complex 1 in human PC-3 cell mitochondria assessed as reduction in oxygen consumption using glutamate/malate/ADP as substrate by oxygen sensitive fluorescent dye based assay
[6] = Inhibition of mitochondrial complex1 (unknown origin); parameters: species or system Homo sapiens
[7] = target: cAMP and cAMP-inhibited cGMP 3',5'-cyclic phosphodiesterase 10A (Homo sapiens) (UniProt Q9Y233); assay: Inhibition of PDE10A (unknown origin)
cAMP and cAMP-inhibited cGMP 3',5'-cyclic phosphodiesterase 10A (Homo sapiens), sequence (Q9Y233 whole entry): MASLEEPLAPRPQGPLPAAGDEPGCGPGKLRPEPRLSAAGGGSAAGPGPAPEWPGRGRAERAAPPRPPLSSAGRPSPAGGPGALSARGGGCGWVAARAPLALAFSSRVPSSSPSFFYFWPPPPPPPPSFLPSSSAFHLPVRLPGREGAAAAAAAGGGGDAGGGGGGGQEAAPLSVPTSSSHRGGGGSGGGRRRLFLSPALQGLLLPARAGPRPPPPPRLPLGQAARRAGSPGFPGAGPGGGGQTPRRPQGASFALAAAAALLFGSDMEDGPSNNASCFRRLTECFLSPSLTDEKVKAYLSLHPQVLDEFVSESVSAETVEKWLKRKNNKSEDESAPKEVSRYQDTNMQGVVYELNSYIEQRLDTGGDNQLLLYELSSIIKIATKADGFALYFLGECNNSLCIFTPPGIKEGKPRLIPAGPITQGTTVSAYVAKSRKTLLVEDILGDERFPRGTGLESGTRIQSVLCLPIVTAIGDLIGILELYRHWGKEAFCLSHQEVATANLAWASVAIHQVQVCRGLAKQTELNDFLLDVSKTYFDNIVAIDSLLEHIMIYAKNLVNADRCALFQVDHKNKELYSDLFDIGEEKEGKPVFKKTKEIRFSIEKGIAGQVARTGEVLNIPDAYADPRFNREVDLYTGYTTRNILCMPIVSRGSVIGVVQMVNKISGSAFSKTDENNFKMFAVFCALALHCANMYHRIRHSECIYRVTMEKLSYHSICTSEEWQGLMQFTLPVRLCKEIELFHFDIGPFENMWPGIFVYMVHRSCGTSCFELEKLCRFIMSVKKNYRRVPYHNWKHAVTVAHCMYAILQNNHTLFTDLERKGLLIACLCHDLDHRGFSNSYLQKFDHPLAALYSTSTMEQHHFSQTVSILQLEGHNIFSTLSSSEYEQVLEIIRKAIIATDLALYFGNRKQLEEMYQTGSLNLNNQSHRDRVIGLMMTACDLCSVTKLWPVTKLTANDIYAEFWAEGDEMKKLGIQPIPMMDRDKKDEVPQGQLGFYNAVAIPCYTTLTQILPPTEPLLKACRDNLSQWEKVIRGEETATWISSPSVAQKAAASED

[8] = Inhibition of mitochondrial complex 1 in human A549 cells assessed as oxygen consumption rate by seahorse analysis; type: cell-based
[9] = Inhibition of mitochondrial pyruvate carrier in Wistar rat liver mitochondria assessed as reduction in [1-14C]pyruvate uptake preincubated for 2 mins followed by rotenone and [1-14C]pyruvate addition by scintillation counting method
[10] = Inhibition of mitochondrial complex 1 in bovine heart mitochondria incubated for 3 hrs and measured up to 30 mins by colorimetric method
[11] = Ratio of drug level in ICR mouse brain to plasma at 30 mg/kg, po by LC-MS analysis; type: ADME, organism-based; settings: read-out: BPR
[12] = Oral bioavailability in ICR mouse at 30 mg/kg; type: ADME, organism-based; settings: in vivo
[13] = Inhibition of mitochondrial complex 1 in human NCI-H460 cells assessed as reduction in oxygen consumption rate by seahorse analysis; type: cell-based
[14] = Half life in mouse plasma incubated up to 1440 mins by mass spectrometric analysis; type: ADME, cell-free
[15] = Cmax in CD1 mouse plasma at 10 mg/kg, ip by LC/MS/MS analysis; type: ADME, organism-based; parameters: route intraperitoneal, dose 10 mg/kg
[16] = Half life in CD1 mouse plasma at 10 mg/kg, ip by LC/MS/MS analysis; type: ADME, organism-based
[17] = Inhibition of mitochondrial complex 1 in Sprague-Dawley rat heart mitochondria by spectrophotometric method
[18] = Antiproliferative activity against human H2030-BrM3 cells by IncuCyte live-cell imaging assay; type: functional, cell-based
A549 = assay: Antiproliferative activity against human A549 cells by IncuCyte live-cell imaging assay; type: functional, cell-based
[19] = Half life in ICR/CD-1 mouse S9 fraction incubated for 0 to 240 mins in presence of NADPH regenerating system by HPLC/MS analysis; type: ADME, subcellular; settings: time 0-240 min
GBM = assay: Growth inhibition of patient derived GBM cells incubated for 4 days by Celltiter glo assay; type: functional, cell-based; settings: Homo sapiens, 96 h
[20] = Growth inhibition of mouse GBM cells incubated for 4 days by Celltiter glo assay; type: functional, cell-based; settings: 96 h
MCF7 = assay: Inhibition of mammosphere formation in human MCF7 cells incubated for 5 days; type: functional, cell-based; settings: MCF7, 120 h
[21] = Inhibition of Cytochrome b-c1 complex I304M/R306K double mutant in Rhodobacter capsulatus MT-RBC1

COC[C@@H](C[C@H]1O[C@@](O)([C@H](O)[C@@H]2C[C@H](OC)[C@@H](O)CC/C=C(C)/C=C/[C@@H](O[C@@H]3O[C@@H](C)[C@H](OC)[C@@H](O)[C@@H]3O)[C@H](C)/C=C(C)/C=C(C)/C=C(\C)C(=O)O2)[C@H](C)[C@@H](O)[C@H]1C)O[C@H]1C[C@](C)(O)[C@@H](O[C@H]2C[C@@H](OC)[C@H](O)[C@@H](C)O2)[C@H](C)O1
Ki [1]: 4 µM | Ki [2]: 5 µM

N=C(N)NC(=N)NCCCCCCCCCC[P+](c1ccccc1)(c1ccccc1)c1ccccc1
IC50 [3]: 0.4 µM

Cc1cc(-c2nc(-c3ccc(OC(F)(F)F)cc3)no2)nn1Cc1ccnc(N2CCN(C3CC3)CC2)c1
EC50 [4]: 0.003 µM | IC50 [5]: 0.01 µM

C=C(C)[C@H]1Cc2c(ccc3c2O[C@@H]2COc4cc(OC)c(OC)cc4[C@@H]2C3=O)O1 [ROTENONE]
IC50 [6]: 0.1 µM

COc1cc2ccnc(Cc3cccc4ccccc34)c2cc1OC
IC20 [7]: 13.4 µM | IC50 [8]: 7.2 µM

O=C(O)c1nn(Cc2ccc(Cl)cc2Cl)c2ccccc12 [LONIDAMINE]
Ki [9]: 2.5 µM

FC(F)(F)c1ccc(/C=C/c2nc(COc3ccc(CCCCn4ccnn4)cc3)co2)cc1 [MUBRITINIB]
IC50 [10]: 0.051 µM

COc1ccc(Cc2nccc3cc(OC)c(OC)cc23)cc1OC [PAPAVERINE]
IC20 [7]: 0.65 µM | IC50 [8]: 15.4 µM

N=C(NC(=N)N1CCCC1)Nc1ccc(OC(F)(F)F)cc1 [LIXUMISTAT]
Kp [11]: 0.37 | bioavailability [12]: 72.9%

Cc1nc(-c2nc(-c3ccc(OC(F)(F)F)cc3)no2)nn1Cc1cccc(N2CCC(S(C)(=O)=O)CC2)c1
IC50 [13]: 0.0014 µM

CC(C)[C@@H]1CC[C@@H](C)C[C@H]1OC(=O)Cn1c(-c2cccc(C(F)(F)F)c2)[n+](C)c2ccccc21.[I-]
half-life [14]: 5.1 h | Cmax [15]: 375 ng/g | half-life [16]: 15.2 h

Cc1ccc(Sc2cccc3[nH]c4nc(N)nc(N)c4c23)cc1
IC50 [17]: 9.9 µM

O=C(NCCCCCCCCCC[P+](c1ccccc1)(c1ccccc1)c1ccccc1)c1nn(Cc2ccc(Cl)cc2Cl)c2ccccc12
IC50 [18]: 0.74 µM | IC50 (A549): 0.69 µM

CCc1n(CC(=O)O[C@@H]2C[C@H](C)CC[C@H]2C(C)C)c2ccccc2[n+]1C.[Cl-]
half-life [14]: 0.0667 h | half-life [19]: 3.62 h | IC50 (GBM): 1 µM | IC50 [20]: 0.15 µM

O=C1C(O)=C([C@H]2CC[C@H](c3ccc(Cl)cc3)CC2)C(=O)c2ccccc21 [ATOVAQUONE]
IC50 (MCF7): 1 µM | IC50 [21]: 0.01 µM

CN(C)C(=N)NC(=N)N [METFORMIN]
IC50 [18]: 139 µM | Kp [11]: 0.1 | IC50 (A549): 208 µM | IC50 [3]: 1100 µM
